This passage reports IC50 results from ChEMBL document CHEMBL1133923, “Evolution of anti-HIV drug candidates. Part 3: Diarylpyrimidine (DAPY) analogues” (Bioorg Med Chem Lett, 2001).

pIC50: −log10 of the molar value.

Holding throughout (test): microbe, parasite or virus in culture
The subject of test [1] is Human immunodeficiency virus 1. The note with it: Human immunodeficiency virus 1, MT4.
For test [2], the system named is Human immunodeficiency virus 1. The note with it: Human immunodeficiency virus 1, MT4. The source holds these as a separate data set.
Test [3] relates to Human immunodeficiency virus 1. The note with it: Human immunodeficiency virus 1, MT4. This is another data set of the same source.
Test [4] deals with Human immunodeficiency virus 1. The note with it: Human immunodeficiency virus 1, MT4. The source holds these as a separate data set.
The test system of test [5] is Human immunodeficiency virus 1. The note with it: Human immunodeficiency virus 1, MT4. The source holds these as a separate data set.
Test [6] relates to Human immunodeficiency virus 1. Particulars: Human immunodeficiency virus 1, MT4. This is another data set of the same source.
Test [7] deals with Human immunodeficiency virus 1. It counts as functional, organism-based, MT4.
[8] abbreviates: Human immunodeficiency virus 1, MT4.

The term pIC50 denotes −log10 of the IC50, conventionally taken in molar units. A high value points to a small IC50. In turn, `Cc1cc(C)c(Nc2nc(Nc3ccc(C#N)cc3)ncc2-c2ccccc2)c(C)c1` gave a pIC50 in test [1] of 7.62.
Take `Cc1cc(Cl)cc(Cl)c1Nc1ccnc(Nc2ccc(C#N)cc2)n1`: the pIC50 in test [1] is 9.00; in test [2], less than 5.00; in test [3] it was 7.89; in test [4], 7.22; in test [5] it was 7.74; in test [6], 7.07.
As to `Cc1cc(C)c(Oc2ccnc(Nc3ccc(C#N)cc3)n2)c(C)c1`, the pIC50 in test [1] is 8.54; in test [7] (setting [8]), 5.96; in test [2], 5.09; in test [3] it was 8.52; in test [4] it was 7.66; in test [5], 7.42. In test [6], this compound showed a pIC50 of 7.26.
As to `N#Cc1ccc(Nc2nccc(Nc3c(F)cc(Br)cc3Br)n2)cc1`, the pIC50 in test [1] is 9.22; in test [2] it was less than 5.00; in test [3] it was 8.24; in test [4] it was 7.82; in test [5], 7.82; in test [6] it was 7.19.
Turning to `N#Cc1ccc(Nc2nc(N)nc(Cc3c(Cl)cccc3Cl)n2)cc1`, the pIC50 in test [1] is 8.22.
As for `C=Cc1cnc(Nc2ccc(C#N)cc2)nc1Nc1c(C)cc(C)cc1C`, the pIC50 in test [1] is 8.60; in test [7] (setting [8]) it was 6.97; in test [2], less than 4.00; in test [3] it was 8.24; in test [4], 7.46; in test [5] it was 7.44. This compound gave a pIC50 in test [6] of 7.54.
Regarding `Cc1cnc(Nc2ccc(C#N)cc2)nc1Nc1c(C)cc(C#N)cc1C`, the pIC50 was 9.10 in test [1]; 6.79 in test [7] (setting [8]); less than 5.00 in test [2]; 8.77 in test [3]; 7.80 in test [4]; 7.92 in test [5]. In addition, in test [6], the pIC50 was 7.80.
In the case of `Cc1cc(Br)cc(C)c1Oc1ccnc(Nc2ccc(C#N)cc2)n1`, the pIC50 in test [1] is 8.54; in test [7] (setting [8]) it was 6.66; in test [2], 5.63; in test [3], 8.33; in test [4], 6.95; in test [5], 7.23. Further, the pIC50 in test [6] is 7.10.
In the case of `Cc1cccc(C)c1Nc1ccnc(Nc2ccc(C#N)cc2)n1`, the pIC50 in test [1] is 9.15; in test [2], less than 5.00; in test [3], 7.55; in test [4], 6.67; in test [5] it was 7.21; in test [6] it was 6.59.
In the case of `Cc1cc(Br)c(Nc2ccnc(Nc3ccc(C#N)cc3)n2)c(Br)c1`, the pIC50 was 9.15 in test [1]; 6.88 in test [7] (setting [8]); less than 4.00 in test [2]; 8.52 in test [3]; 8.52 in test [4]; 8.47 in test [5]. The compound also showed a pIC50 in test [6] of less than 4.00.
Regarding `Cc1cc(C#N)cc(C)c1Nc1nc(Nc2ccc(C#N)cc2)ncc1Cl`, the pIC50 in test [1] was 8.92; in test [7] (setting [8]), 7.16; in test [2], 6.84; in test [3], 9.05; in test [4], 8.28; in test [5] it was 7.85. Also, in test [6], the pIC50 was 8.33.
Take `N#Cc1ccc(Nc2cc(Cc3c(Cl)cccc3Cl)nc(N)n2)cc1`: the pIC50 in test [1] is 8.00; in test [3] it was 4.48; in test [4], 4.02; in test [5], less than 4.00; in test [6], less than 4.00.
In the case of `Cc1cc(C)c(Nc2nc(Nc3ccc(C#N)cc3)ncc2C)c(C)c1`, the pIC50 in test [1] is 8.77; in test [7] (setting [8]), 7.28; in test [2] it was less than 4.00; in test [3] it was 8.59; in test [4] it was 7.92; in test [5], 7.92. The same compound had a pIC50 in test [6] of 7.74.
On to `Cc1cc(C#N)cc(C)c1Oc1nc(Nc2ccc(C#N)cc2)ncc1Br`, for which the pIC50 was 8.85 in test [1]; 7.60 in test [7] (setting [8]); 7.31 in test [2]; 8.85 in test [3]; 8.18 in test [4]; 7.66 in test [5]. This compound gave a pIC50 in test [6] of 8.23.
Turning to `Cc1cc(C#N)cc(C)c1Nc1nc(Nc2ccc(C#N)cc2)ncc1C#N`, the pIC50 in test [1] was 9.30; in test [7] (setting [8]), 6.74; in test [2], 6.51; in test [3], 8.59; in test [4], 7.04; in test [5] it was 7.12. The compound further had a pIC50 in test [6] of 8.07.
Regarding `Cc1cc(C)c(Nc2nc(Nc3ccc(C#N)cc3)ncc2Cl)c(C)c1`, the pIC50 in test [1] was 8.57; in test [7] (setting [8]), 6.86; in test [2], 6.50; in test [3], 8.22; in test [4], 7.77; in test [5] it was 7.49. This compound gave a pIC50 in test [6] of 7.47.
Turning to `Cc1cc(C#N)cc(C)c1Oc1nc(Nc2ccc(C#N)cc2)ncc1[N+](=O)[O-]`, the pIC50 in test [1] is 7.74; in test [7] (setting [8]) it was 6.71; in test [2], less than 5.00; in test [3] it was 8.00; in test [4] it was 6.92; in test [5] it was 6.52. In test [6], this compound had a pIC50 of 6.11.
Consider `Cc1cc(C#N)cc(C)c1Nc1nc(Nc2ccc(C#N)cc2)ncc1Br`, for which the pIC50 in test [1] is 9.40; in test [7] (mt4), 7.49; in test [2], 7.43; in test [3], 9.40; in test [4] it was 8.15; in test [5], 8.02. Besides, the pIC50 in test [6] was 8.48.
Turning to `Cc1cc(Cl)cc(C)c1Nc1ccnc(Nc2ccc(C#N)cc2)n1`, the pIC50 in test [1] was 8.68; in test [7] (setting [8]), 6.40; in test [2] it was less than 5.00; in test [3], 7.89; in test [4], 6.49; in test [5], 7.72. The pIC50 in test [6] was 6.94.
As for `Cc1cc(C)c(Sc2ccnc(Nc3ccc(C#N)cc3)n2)c(C)c1`, the pIC50 in test [1] was 8.44; in test [2] it was 5.32; in test [3], 7.92; in test [4], 7.27; in test [5], 7.60; in test [6] it was 7.70.
Take `Cc1cc(Br)cc(C)c1Nc1ccnc(Nc2ccc(C#N)cc2)n1`: the pIC50 in test [1] was 8.64; in test [7] (setting [8]), 6.82; in test [2], less than 4.00; in test [3] it was 7.92; in test [4], 7.12; in test [5], 7.77. In test [6], this compound gave a pIC50 of 7.16.
On to `C#Cc1cnc(Nc2ccc(C#N)cc2)nc1Nc1c(C)cc(C)cc1C`, for which the pIC50 in test [7] (setting [8]) is 7.38; in test [2] it was 7.15; in test [3], 8.21.
In the case of `Cc1cc(C)c(Nc2nc(Nc3ccc(C#N)cc3)ncc2Br)c(C)c1`, the negative logarithm of the IC50 (pIC50) in test [1] was 8.26; in test [7] (setting [8]), 6.55; in test [2], 6.46; in test [3], 8.14; in test [4] it was 7.96; in test [5] it was 7.44. For the same compound, in test [6], the pIC50 was 7.57.
For the compound `Cc1cc(C#N)cc(C)c1Oc1nc(Nc2ccc(C#N)cc2)ncc1Cl`, the pIC50 in test [1] was 8.85; in test [7] (setting [8]) it was 7.42; in test [2] it was 6.86; in test [3] it was 8.59; in test [4] it was 8.12; in test [5], 7.47. The compound further gave a pIC50 in test [6] of 8.32.
As for `CC(=O)Nc1cnc(Nc2ccc(C#N)cc2)nc1Oc1c(C)cc(C#N)cc1C`, the values for the pIC50 in test [7] (setting [8]), in test [2] and in test [3] were 7.52, 6.69 and 8.48, respectively.
For `Cc1cc(C#N)cc(C)c1Oc1nc(Nc2ccc(C#N)cc2)ncc1N`, the pIC50 in test [1] was 9.00; in test [7] (setting [8]), 7.85; in test [2] it was 6.55; in test [3], 8.89; in test [4], 7.80; in test [5] it was 8.03. This compound also showed a pIC50 in test [6] of 8.24.
As for `Cc1cc(Br)cc(C)c1Sc1ccnc(Nc2ccc(C#N)cc2)n1`, the pIC50 in test [1] is 8.24; in test [7] (setting [8]) it was 6.45; in test [2], 5.41; in test [3] it was 7.41; in test [4], 6.76; in test [5], 7.17. For the same compound, the pIC50 in test [6] was 7.36.
For `C#Cc1cc(C)c(Oc2ccnc(Nc3ccc(C#N)cc3)n2)c(C)c1`, the pIC50 in test [1] was 8.26; in test [7] (setting [8]) it was 6.10; in test [2] it was 5.38; in test [3] it was 7.92; in test [4], 6.73; in test [5] it was 6.77. Besides, the pIC50 in test [6] was 7.30.
`N#Cc1ccc(Nc2nccc(Nc3c(Cl)cc(Cl)cc3Cl)n2)cc1`: the pIC50 in test [1] was 9.15; in test [2], less than 5.00; in test [3] it was 8.52; in test [4] it was 7.85; in test [5] it was 8.00; in test [6] it was 7.00.
Turning to `Cc1cc(C)c(Nc2nc(Nc3ccc(C#N)cc3)ncc2C#N)c(C)c1`, the pIC50 in test [1] was 9.00; in test [3], 8.47; in test [4], 7.20; in test [5], 7.40; in test [6], 7.11.
The matching figures for `N#Cc1ccc(Nc2cc(N)nc(Cc3c(Cl)cccc3Cl)n2)cc1`: 6.34, less than 4.00, less than 4.00, less than 4.00 and less than 4.00.
The matching figures for `N#Cc1ccc(Nc2nc(N)cc(Cc3c(Cl)cccc3Cl)n2)cc1`: 9.00, 7.92, 6.52, 6.76 and 7.15.
With `CC(C)Nc1cccnc1N1CCN(C(=O)c2cc3cc(NS(C)(=O)=O)ccc3[nH]2)CC1` [DELAVIRDINE], the pIC50 in test [1] was 7.20; in test [7] (setting [8]), 4.70; in test [3] it was 5.60; in test [4], 5.60; in test [5], 5.70; in test [6], 5.90.
